Assays:
MCF7 cells = experiment: CellTiter-Glo Luminescent Cell Viability Assay on ER-positive breast cancer MCF-7 cells in vitro; type: cell-based; conditions: Homo sapiens, 72 hours, read-out: Inhibition of viability of breast cancer cells IC50, MCF7 cells
Protocol: B: CellTiter-Glo® Luminescent Cell Viability Assay on ER-Positive Breast Cancer MCF-7 Cells In Vitro:
MCF7 cells from ATCC were maintained in an Dulbecco's modified Eagle medium (DMEM), and 10% fetal calf serum at 37 in a 5% CO2 atmosphere. Cells were placed at a density of 6×10^3 cells per well in a 96-well plate. MCF 7 cells were treated with a test compound dissolved in DMSO at the concentration of 0, 0.3 μM, 0.5 μM, 1 μM, 2 μM, 3 μM, 5 μM, 10 μM, 20 μM, 30 μM, 50 μM and 100 μM for 72 hours. Treated cells were examined through CellTiter-Glo® Luminescent Cell Viability Assay Kit (Promega), and luminescence were recorded with Envision.

K562 cells = experiment: Viability of chronic leukemia cells K562 by CellTiter-Glo Luminescent Assay in vitro; type: cell-based, human; conditions: Homo sapiens, 72 hours, read-out: Inhibition of viability of cells in vitro IC50, K562 cells
Protocol: A: Detection of Viability of Chronic Leukemia Cells K562 by CellTiter-Glo® Luminescent Assay In Vitro
(§1) The chronic leukemia cells K562 from ATCC were maintained in IMDM and 10% fetal calf serum at 37° C. in a 5% CO2 atmosphere. The cells were subseeded in a 96-well culture plate at a cencentration of 6×10^3 cells/well.K562 cells were treated with a test compound dissolved in DMSO at the concentration of 0, 0.3 μM, 0.5 μM, 1 μM, 2 μM, 3 μM, 5 μM, 10 μM, 20 μM, 30 μM, 50 μM and 100 μM for 72 hours. Treated cells were examined by CellTiter-Glo® Luminescent Cell Viability Assay Kit (Promega), and luminescence were recorded with Envision.

[1] = system: prostate cancer cells PC-3; experiment: Inhibition of prostate cancer cells PC-3 in vitro by MTT method; type: cell-based; conditions: PC-3, MTT, 72 hours, FIG. 8; read-out: IC50, in vitro inhibition on cell line PC-3 of prostatic cancer
Protocol: A: Inhibition of Prostate Cancer Cells PC-3 In Vitro by the Compounds by MTT Method
The […] cancer PC-3 cells were subseeded in a 96-well culture plate at a concentration of 3×10^3 cells/well and maintained in medium containing 10% F12K fetal bovine serum. PC-3 cells were treated with the test compound dissolved in DMSO at the concentration of 0, 1, 2, 4, 8, 10 and 20 μM for 72 hours. OD value was tested by MTT method, and the inhibition percentage was calculated.

lung cancer H460 cells = experiment: Inhibition of lung cancer cells H460 in vitro by MTT method; type: cell-based; conditions: Homo sapiens, NCI-H460, 72 hours, FIG. 5, read-out: IC50, in vitro inhibition on cell line H460 of lung cancer
Protocol: A: Inhibition of Lung Cancer Cells H460 In Vitro by the Compounds by MTT Method
(§2) The lung cancer H460 cells were subseeded in a 96-well culture plate at a concentration of 4.0×10^3 cells/well and maintained in phenol red free medium containing 2.5% CS-FBS at 37° C. in a 5% CO2 atmosphere. H460 cells were treated with a test compound dissolved in DMSO at the concentration of 0, 1, 2, 4, 8, 10 and 20 μM for 72 hours. OD value was tested by MTT method, and the inhibition percentage was calculated.

MDA-MB-231 cells = experiment: CellTiter-Glo Luminescent Cell Viability Assay on ER-negative breast cancer MDA-MB-231 cells in vitro; type: cell-based; conditions: Homo sapiens, 72 hours, read-out: Inhibition of viability of breast cancer cells IC50, MDA-MB-231 cells
Protocol: A: CellTiter-Glo® Luminescent Cell Viability Assay on ER-Negative Breast Cancer MDA-MB-231 In Vitro:
MDA-MB-231 cells were maintained at 37° C., in a 5% CO2 atmosphere in DMEM and 10% fetal calf serum. The cells were placed at a density of 6×10^3 cells per well in a 96-well plate. MDA-MB-231 cells were treated with a test compound dissolved in DMSO at the concentration of 0, 0.3 μM, 0.5 μM, 1 μM, 2 μM, 3 μM, 5 μM, 10 μM, 20 μM, 30 μM, 50 μM and 100 μM for 72 hours. Treated cells were examined under CellTiter-Glo® Luminescent Cell Viability Assay Kit (Promega), and luminescence were recorded with Envision.

[2] = system: pancreatic cancer PANC-1 cells; experiment: Inhibition of pancreatic cancer cells PANC-1 in vitro by MTT method; type: cell-based; conditions: Homo sapiens; PANC-1, MTT, 72 hours, FIG. 7; read-out: IC50, in vitro inhibition on cell line PANC-1 of pancreatic cancer
Protocol: A: Inhibition of Pancreatic Cancer Cells PANC-1 In Vitro by the Compounds by MTT Method
as §2, with “pancreatic” for “lung”, “PANC-1” for “H460”, “3×10^3” for “4.0×10^3”, “free 1640” for “free”

Daudi cells = experiment: Inhibition of human B lymphoma Daudi cells by CellTiter-Glo Luminescent Assay in vitro; type: cell-based; conditions: Homo sapiens, 72 hours, read-out: Inhibition of viability of cells in vitro IC50, Daudi cells
Protocol: A: Inhibition of Human B Lymphoma Daudi Cells by CellTiter-Glo® Luminescent Assay In Vitro
as §1, with “Human B Lymphoma Daudi” for “chronic leukemia”, “cells” for “cells K562”, “concentration” for “cencentration”, “cells/well. Human B Lymphoma Daudi” for “cells/well.K562”, “μM,” for “μM, 5 μM,”, “CeliTiter-Glo®” for “CellTiter-Glo®”

CC(C)=CCc1c(O)cc(O)c2c(=O)c(O)c(-c3ccc(C(F)(F)F)cc3)oc12 [Compound 1, 2-(4-trifluoromethylphenyl)-3,5,7-trihydroxy-8-(3-methyl-2-buten-1-yl)-4H-chromen-4-one]
IC50 (MCF7 cells): 2010 nM | IC50 (K562 cells): 1040 nM | IC50 [1]: 1000 to 4000 nM | IC50 (lung cancer H460 cells): 1000 to 4000 nM | IC50 (MDA-MB-231 cells): 1070 nM | IC50 [2]: 1000 to 4000 nM | IC50 (Daudi cells): 824 nM

From patent US9221781B2, “Synthesis of polyhydroxy chromenone compounds and their anti-tumor effects” (BEIJING SHENOGEN PHARMA GROUP LTD., priority 2012, dated 2015)
